{"source": "patent US6479435B1", "about": "“Diaryl ethers and processes for their preparation and herbicidal and desiccant compositions containing them” (ISK Americas Incorporated, priority 1997, dated 2002)", "type_in_all_cases": "in vivo", "key": {"[1]": {"test_system": "redroot pigweed (Amaranthus retroflexus, AMARE)", "assay": "Pre-emerge greenhouse herbicide test, phytotoxicity rating", "details": "14 days after application, rating scale 0-100", "outline": "(§1)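 Seeds sown in sandy loam mix one day before track-sprayer application of compounds in acetone at 125–1000 g ai/ha (187 l/ha), then surface-watered to incorporate and bottom-watered. Visual rating 14 days after application on a 0–100 scale (0 = no damage, 100 = all plants dead).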"}, "[2]": {"test_system": "lambsquarters (Chenopodium album, CHEAL)", "assay": "Pre-emerge greenhouse herbicide test, phytotoxicity rating", "details": "14 days after application, rating scale 0-100", "outline": "as §1"}, "[3]": {"test_system": "sicklepod (Cassia obtusifolia, CASOB)", "assay": "Pre-emerge greenhouse herbicide test, phytotoxicity rating", "details": "14 days after application, rating scale 0-100", "outline": "as §1"}, "[4]": {"test_system": "ivyleaf morningglory (Ipomoea hederacea, IPOHE)", "assay": "Pre-emerge greenhouse herbicide test, phytotoxicity rating", "details": "14 days after application, rating scale 0-100", "outline": "as §1"}, "[5]": {"test_system": "barnyardgrass (Echinochloa crusgalli, ECHCG)", "assay": "Pre-emerge greenhouse herbicide test, phytotoxicity rating", "details": "14 days after application, rating scale 0-100", "outline": "as §1"}, "[6]": {"test_system": "common ragweed (Ambrosia artemisiifolia L., AMBEL)", "assay": "Pre-emerge greenhouse herbicide test, phytotoxicity rating", "details": "14 days after application, rating scale 0-100", "outline": "as §1"}, "[7]": {"test_system": "Johnsongrass (Sorghum halepense, SORHA)", "assay": "Pre-emerge greenhouse herbicide test, phytotoxicity rating", "details": "14 days after application, rating scale 0-100", "outline": "as §1"}, "[8]": {"test_system": "large crabgrass (Digitaria sanguinalis, DIGSA)", "assay": "Pre-emerge greenhouse herbicide test, phytotoxicity rating", "details": "14 days after application, rating scale 0-100", "outline": "as §1"}, "[9]": {"test_system": "green foxtail (Setaria viridis, SETVI)", "assay": "Pre-emerge greenhouse herbicide test, phytotoxicity rating", "details": "14 days after application, rating scale 0-100", "outline": "as §1"}, "[10]": {"test_system": "velvetleaf (Abutilon theophrasti, ABUTH)", "assay": "Pre-emerge greenhouse herbicide test, phytotoxicity rating", "details": "14 days after application, rating scale 0-100", "outline": "as §1"}, "[11]": {"test_system": "redroot pigweed (Amaranthus retroflexus, AMARE)", "assay": "Post-emerge greenhouse herbicide test, phytotoxicity rating", "details": "14 days after application", "outline": "(§2)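 Compounds in acetone with 0.25% v/v non-ionic surfactant were track-sprayed at 187 l/ha over plants at the 2-3 leaf stage, at 63 to 1000 g ai/ha. Pots were bottom-watered. Injury was scored visually 14 days later on a 0-100 scale, where 0 is no damage and 100 is complete plant death.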"}, "[12]": {"test_system": "lambsquarters (Chenopodium album, CHEAL)", "assay": "Post-emerge greenhouse herbicide test, phytotoxicity rating", "details": "14 days after application", "outline": "as §2"}, "[13]": {"test_system": "sicklepod (Cassia obtusifolia, CASOB)", "assay": "Post-emerge greenhouse herbicide test, phytotoxicity rating", "details": "14 days after application", "outline": "as §2"}, "[14]": {"test_system": "ivyleaf morningglory (Ipomoea hederacea, IPOHE)", "assay": "Post-emerge greenhouse herbicide test, phytotoxicity rating", "details": "14 days after application", "outline": "as §2"}, "[15]": {"test_system": "barnyardgrass (Echinochloa crusgalli, ECHCG)", "assay": "Post-emerge greenhouse herbicide test, phytotoxicity rating", "details": "14 days after application", "outline": "as §2"}, "[16]": {"test_system": "Johnsongrass (Sorghum halepense, SORHA)", "assay": "Post-emerge greenhouse herbicide test, phytotoxicity rating", "details": "14 days after application", "outline": "as §2"}, "[17]": {"test_system": "large crabgrass (Digitaria sanguinalis, DIGSA)", "assay": "Post-emerge greenhouse herbicide test, phytotoxicity rating", "details": "14 days after application", "outline": "as §2"}, "[18]": {"test_system": "green foxtail (Setaria viridis, SETVI)", "assay": "Post-emerge greenhouse herbicide test, phytotoxicity rating", "details": "14 days after application", "outline": "as §2"}, "[19]": {"test_system": "velvetleaf (Abutilon theophrasti, ABUTH)", "assay": "Post-emerge greenhouse herbicide test, phytotoxicity rating", "details": "14 days after application", "outline": "as §2"}, "[20]": {"test_system": "soybean (Glycine max L., var. Pella 86, SOY)", "assay": "Post-emerge greenhouse test, crop damage rating", "details": "14 days after application", "outline": "as §2"}, "[21]": {"test_system": "soybean (Glycine max L., var. Pella 86, SOY)", "assay": "Pre-emerge greenhouse test, crop damage rating", "details": "14 days after application, rating scale 0-100", "outline": "as §1"}, "[22]": {"test_system": "field corn (Zea mays L., var. Dekalb 535, CORN)", "assay": "Pre-emerge greenhouse test, crop damage rating", "details": "14 days after application, rating scale 0-100", "outline": "as §1"}, "[23]": {"test_system": "upland rice (Oryza sp., var.Tebonnet, RICE)", "assay": "Pre-emerge greenhouse test, crop damage rating", "details": "14 days after application, rating scale 0-100", "outline": "as §1"}, "[24]": {"test_system": "common ragweed (Ambrosia artemisiifolia L., AMBEL)", "assay": "Post-emerge greenhouse herbicide test, phytotoxicity rating", "details": "14 days after application", "outline": "as §2"}, "[25]": {"test_system": "field corn (Zea mays L., var. Dekalb 535, CORN)", "assay": "Post-emerge greenhouse test, crop damage rating", "details": "14 days after application", "outline": "as §2"}, "[26]": {"test_system": "upland rice (Oryza sp., var.Tebonnet, RICE)", "assay": "Post-emerge greenhouse test, crop damage rating", "details": "14 days after application", "outline": "as §2"}}, "data": [{"molecule": "O=c1n(CCCF)nnn1-c1cc(Oc2ncccc2C(F)(F)F)c(Cl)cc1F", "note": "[Compound 6-6]", "values": [{"measurement": "phytotoxicity rating AMARE", "setting": "[1]; 125 g ai/ha", "result": 95}, {"measurement": "phytotoxicity rating AMARE", "setting": "[1]; 500 g ai/ha", "result": 100}, {"measurement": "phytotoxicity rating CHEAL", "setting": "[2]; 125 g ai/ha", "result": 100}, {"measurement": "phytotoxicity rating CHEAL", "setting": "[2]; 500 g ai/ha", "result": 100}, {"measurement": "phytotoxicity rating CASOB", "setting": "[3]; 125 g ai/ha", "result": 10}, {"measurement": "phytotoxicity rating CASOB", "setting": "[3]; 500 g ai/ha", "result": 0}, {"measurement": "phytotoxicity rating IPOHE", "setting": "[4]; 125 g ai/ha", "result": 30}, {"measurement": "phytotoxicity rating IPOHE", "setting": "[4]; 500 g ai/ha", "result": 50}, {"measurement": "phytotoxicity rating ECHCG", "setting": "[5]; 125 g ai/ha", "result": 20}, {"measurement": "phytotoxicity rating ECHCG", "setting": "[5]; 500 g ai/ha", "result": 60}, {"measurement": "phytotoxicity rating AMBEL", "setting": "[6]; 125 g ai/ha", "result": 30}, {"measurement": "phytotoxicity rating AMBEL", "setting": "[6]; 500 g ai/ha", "result": 60}, {"measurement": "phytotoxicity rating SORHA", "setting": "[7]; 125 g ai/ha", "result": 30}, {"measurement": "phytotoxicity rating SORHA", "setting": "[7]; 500 g ai/ha", "result": 95}, {"measurement": "phytotoxicity rating DIGSA", "setting": "[8]; 125 g ai/ha", "result": 20}, {"measurement": "phytotoxicity rating DIGSA", "setting": "[8]; 500 g ai/ha", "result": 100}, {"measurement": "phytotoxicity rating SETVI", "setting": "[9]; 125 g ai/ha", "result": 95}, {"measurement": "phytotoxicity rating SETVI", "setting": "[9]; 500 g ai/ha", "result": 100}, {"measurement": "phytotoxicity rating ABUTH", "setting": "[10]; 125 g ai/ha", "result": 80}, {"measurement": "phytotoxicity rating ABUTH", "setting": "[10]; 500 g ai/ha", "result": 100}, {"measurement": "AMARE phytotoxicity rating (0-100)", "setting": "[11]; 63 g al/ha", "result": 70}, {"measurement": "AMARE phytotoxicity rating (0-100)", "setting": "[11]; 500 g al/ha", "result": 95}, {"measurement": "CHEAL phytotoxicity rating (0-100)", "setting": "[12]; 63 g al/ha", "result": 90}, {"measurement": "CHEAL phytotoxicity rating (0-100)", "setting": "[12]; 500 g al/ha", "result": 100}, {"measurement": "CASOB phytotoxicity rating (0-100)", "setting": "[13]; 63 g al/ha", "result": 0}, {"measurement": "CASOB phytotoxicity rating (0-100)", "setting": "[13]; 500 g al/ha", "result": 30}, {"measurement": "IPOHE phytotoxicity rating (0-100)", "setting": "[14]; 63 g al/ha", "result": 60}, {"measurement": "IPOHE phytotoxicity rating (0-100)", "setting": "[14]; 500 g al/ha", "result": 95}, {"measurement": "ECHCG phytotoxicity rating (0-100)", "setting": "[15]; 63 g al/ha", "result": 20}, {"measurement": "ECHCG phytotoxicity rating (0-100)", "setting": "[15]; 500 g al/ha", "result": 70}, {"measurement": "SORHA phytotoxicity rating (0-100)", "setting": "[16]; 63 g al/ha", "result": 0}, {"measurement": "SORHA phytotoxicity rating (0-100)", "setting": "[16]; 500 g al/ha", "result": 70}, {"measurement": "DIGSA phytotoxicity rating (0-100)", "setting": "[17]; 63 g al/ha", "result": 0}, {"measurement": "DIGSA phytotoxicity rating (0-100)", "setting": "[17]; 500 g al/ha", "result": 10}, {"measurement": "SETVI phytotoxicity rating (0-100)", "setting": "[18]; 63 g al/ha", "result": 10}, {"measurement": "SETVI phytotoxicity rating (0-100)", "setting": "[18]; 500 g al/ha", "result": 40}, {"measurement": "ABUTH phytotoxicity rating (0-100)", "setting": "[19]; 63 g al/ha", "result": 50}, {"measurement": "ABUTH phytotoxicity rating (0-100)", "setting": "[19]; 500 g al/ha", "result": 95}, {"measurement": "SOY crop damage rating (0-100)", "setting": "[20]; 63 g al/ha", "result": 10}, {"measurement": "SOY crop damage rating (0-100)", "setting": "[20]; 500 g al/ha", "result": 50}, {"measurement": "crop damage rating SOY", "setting": "[21]; 125 g ai/ha", "result": 0}, {"measurement": "crop damage rating SOY", "setting": "[21]; 500 g ai/ha", "result": 10}, {"measurement": "crop damage rating CORN", "setting": "[22]; 125 g ai/ha", "result": 0}, {"measurement": "crop damage rating CORN", "setting": "[22]; 500 g ai/ha", "result": 0}, {"measurement": "crop damage rating RICE", "setting": "[23]; 125 g ai/ha", "result": 0}, {"measurement": "crop damage rating RICE", "setting": "[23]; 500 g ai/ha", "result": 30}, {"measurement": "AMBEL phytotoxicity rating (0-100)", "setting": "[24]; 63 g al/ha", "result": 20}, {"measurement": "AMBEL phytotoxicity rating (0-100)", "setting": "[24]; 500 g al/ha", "result": 20}, {"measurement": "CORN crop damage rating (0-100)", "setting": "[25]; 63 g al/ha", "result": 5}, {"measurement": "CORN crop damage rating (0-100)", "setting": "[25]; 500 g al/ha", "result": 15}, {"measurement": "RICE crop damage rating (0-100)", "setting": "[26]; 63 g al/ha", "result": 20}, {"measurement": "RICE crop damage rating (0-100)", "setting": "[26]; 500 g al/ha", "result": 40}]}]}
